From ChEMBL document CHEMBL1128891, “Synthesis of indane derivatives as mechanism-based inhibitors of dopamine -hydroxylase” (Bioorg Med Chem Lett, 1995)

How the values were obtained:
[1] = target: T1, Dopamine beta-hydroxylase (Bos taurus, UniProt P15101); assay: Kinetic constant for inhibition (KI) of Dopamine beta-Hydroxylase (DBH) from bovine adrenal medulla; format: tissue-based
T1 sequence (P15101 whole entry): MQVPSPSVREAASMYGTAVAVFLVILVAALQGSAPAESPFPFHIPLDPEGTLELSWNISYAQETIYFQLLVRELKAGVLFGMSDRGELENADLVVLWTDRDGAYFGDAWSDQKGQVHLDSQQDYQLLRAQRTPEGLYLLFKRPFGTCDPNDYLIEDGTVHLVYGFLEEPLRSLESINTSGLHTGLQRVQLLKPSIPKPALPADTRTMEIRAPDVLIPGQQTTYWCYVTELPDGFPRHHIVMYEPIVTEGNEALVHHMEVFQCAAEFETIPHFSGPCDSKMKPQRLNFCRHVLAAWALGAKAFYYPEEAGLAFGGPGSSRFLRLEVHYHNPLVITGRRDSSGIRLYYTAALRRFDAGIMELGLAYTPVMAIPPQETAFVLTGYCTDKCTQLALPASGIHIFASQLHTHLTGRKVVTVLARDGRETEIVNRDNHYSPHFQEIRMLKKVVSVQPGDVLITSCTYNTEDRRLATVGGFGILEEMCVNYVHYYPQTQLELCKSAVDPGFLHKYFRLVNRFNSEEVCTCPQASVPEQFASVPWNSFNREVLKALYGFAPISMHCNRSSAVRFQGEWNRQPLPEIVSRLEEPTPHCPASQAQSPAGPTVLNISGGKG

[2] = target: T2, Dopamine beta-hydroxylase (Bos taurus) (UniProt P15101); assay: Kinetic constant for inactivation (k inact) of Dopamine beta-Hydroxylase (DBH) from bovine adrenal medulla; format: tissue-based
T2 sequence (whole entry): T1 sequence (P15101 whole entry)

[3] = Ratio of kinetic constant k inact to KI was determined

Compound | Ki [1] [µM] | K inact [2] [min⁻¹] | Ratio [3] [M⁻¹ min⁻¹]
COc1ccc2c(c1)C1NC1C2 (configuration not stated) | 400 | 0.03 | 70
c1c2c(cc3c1OCO3)C1OC1C2 (configuration not stated) | 1010 | 0.06 | 60
c1ccc2c(c1)CC1OC21 (configuration not stated) | 1060 | 0.08 | 70
Oc1ccc(CC2CC2)cc1 | 12000 |  | 150
c1ccc2c(c1)CC1CC21 (configuration not stated) | 3030 | 0.2 | 70
COc1ccc2c(c1)C1CC1C2 (configuration not stated) | 1120 | 0.11 | 100

Other lines, results leading:

Ki [1] [µM] | K inact [2] [min⁻¹] | Ratio [3] [M⁻¹ min⁻¹] | Compound
150 | 0.23 | 1530 | Oc1ccc2c(c1)C1CC1C2 (configuration not stated)
650 | 0.07 | 110 | COc1ccc2c(c1)C1OC1C2 (configuration not stated)
160 | 0.06 | 370 | c1c2c(cc3c1OCO3)C1CC1C2 (configuration not stated)
109 | 0.129 | 1180 | Oc1cc2c(cc1O)C1CC1C2 (configuration not stated)
240 | 0.018 | 75 | COc1ccc(CC2CC2)cc1
